# Test results taken from US4927817A, “Preventive and therapeutic agent against liver disorder” (Zeria Pharmaceutical Co., Ltd., priority 1986, dated 1990).
# Entries after “also recorded” stand apart in the source; their conditions may differ.
# How the values were obtained:
# [1] = acute toxicity test, oral; format: in vivo, female and male Wistar rats
# Text: In the acute toxicity test, female and male Wistar rats, each with body weight 150-200 g, were divided into the groups with 10 rats each, and 10 g/kg each of carnosine zinc salt was given orally.
# [2] = tested on: hepatitis experimentally induced by carbon tetrachloride; experiment: carnosine zinc salt given after liver disorder had actually occurred (carbon tetrachloride hepatitis); format: in vivo, model animals; conditions: CCl4 hepatitis
# [3] = tested on: liver disorder caused by carbon tetrachloride; experiment: prevention of experimental liver disorder in rat caused by carbon tetrachloride: serum GOT and GPT; format: in vivo, male Wistar rats; conditions: for GOT (serum) / GPT (serum): CCl4 0.4 ml/kg oral 1 h after last dose, blood at 24 h; for GOT (serum): CCl4 + CMC control 2115.9 ± 260.2; for GPT (serum): CCl4 + CMC control 2243.8 ± 333.0
# Experimental: (§1) Carnosine zinc salt was suspended in 0.5% sodium carboxymethyl cellulose (CMC) solution to prepare 60 mg/ml and 20 mg/ml suspensions. This was given to rats orally every day for 8 days at the rate of 0.5 ml/100 g so that the dosage was to be 300 mg/kg and 100 mg/kg, respectively. To the control group, the same volume of 0.5% CMC was given.
# (§2) To prepare the model animals with liver disorder caused by carbon tetrachloride, carbon tetrachloride mixed in olive oil to have a 10% (V/V) mixture was given orally at the rate of 4 ml/kg (0.4 ml/kg as carbon tetrachloride) one hour after the final administration of carnosine zinc salt or 0.5% CMC. The animals were anesthetized by intraperitoneal injection of pentobarbital at 24 hours after carbon tetrachloride was given, and blood was collected from carotid arteries. The blood was centrifuged at 3000 rpm for 15 minutes to fractionate serum, and GOT and GPT were determined (Reitman Frankel and Momose modification).
# For the experiment, male Wistar rats were used. With 10 rats in each group, they were divided into three groups: the group given with carbon tetrachloride (CCl4) and 0.5% CMC only (CCl4 +CMC), the group given with carbon tetrachloride and 300 mg/kg or 100 mg/kg of carnosine zinc salt (CCl4 +carnosine zinc salt) and the group given with 0.5% CMC only (CMC).
# hepatic cells = experiment: histopathological examination of isolated liver (H-E staining) in rats given carbon tetrachloride; format: in vivo, male Wistar rats
# Experimental: as §1, §2
# From the isolated liver, the paraffined sections were prepared, stained by H-E staining and were examined by histopathological examination.
# For the experiment, male Wistar rats were used. […]
# [4] = 100 mg/kg oral daily for 8 days
# [5] = 300 mg/kg oral daily for 8 days
compound,measurement,setting,value
"NCCC(=O)[N-][C@@H](Cc1c[nH]cn1)C(=O)[O-].[Zn+2] [carnosine zinc salt, L-carnosine zinc salt]",death in acute toxicity test,"[1]; 10 g/kg oral, observation for 7 days, female and male rats",no case of death
same,acute toxicity,[1]; oral,very weak toxicity; also recorded: extremely weak
same,preventive effect when given after liver disorder had occurred,[2],the same preventive effect was obtained
same,GOT (serum),[3]; [4],2167.7 ± 777.5 KU
same,GPT (serum),[3]; [4],1917.7 ± 748.6 KU
same,"GPT and GOT in blood, statistical significance","[3]; 300 mg/kg administration group, risk rate of 1%",significantly decreased at risk rate of 1%
same,GOT (serum),[3]; [5],629.7 ± 121.2 KU
same,GPT (serum),[3]; [5],427.7 ± 69.4 KU
same,increase of hepatic enzymes in blood,"[3]; given before liver disorder occurs, CCl4 hepatitis",effectively prevented
same,increase of GPT and GOT in blood,"[3]; oral, depending upon the dosage, CCl4 rats","significant decline in the increase of GPT and GOT in blood; also recorded: suppresses increase of GPT and GOT in blood, depending upon the dosage"
same,prevention of experimental liver disorder caused by carbon tetrachloride,"[3]; oral, rat",effect of carnosine zinc salt to prevent the experimental liver disorder caused by carbon tetrachloride
same,necrosis of hepatic cells and fat formation,"hepatic cells; group given carnosine zinc salt, CCl4 rats",suppression of necrosis of hepatic cells and fat formation
same,degree of necrosis of hepatic cells,hepatic cells; improvement of liver disorder,reduction of the degree of necrosis of hepatic cells
